This is an account of results in article PMC10052609, “Cholinesterase Inhibitors from an Endophytic Fungus Aspergillus niveus Fv-er401: Metabolomics, Isolation and Molecular Docking” (Molecules, 2023).

Data set [1] relates to glutamate-induced excitotoxicity. Particulars: low doses; cited from earlier work.
Data set [2] has as its target BuChE (Homo sapiens, UniProt P06276). Nature of the data set: Butyrylcholinesterase inhibitory activity (Ellman's method). The class given is biochemical. Particulars: butyrylthiocholine iodide substrate, 25 °C, read at 405 nm. As for the experimental part: (§1) In total, 170 μL of Tris–HCl buffer (200 mM, pH 7.5) was added, then 20 μL of the tested compounds at different concentrations ([…]), and finally 20 μL of the enzyme solution (0.1 U mL1). […] In BChE and AChE assays, butyrylthiocholine iodide and acetylthiocholine were used as substrates, and DTNB was used as an indicator. MeOH was used to dissolve the tested samples. […] Blank tests were performed by replacing the enzyme (20 μL) with buffer and recording the absorbances.
(§2) Percentage inhibition was calculated as follows: %Inhibition=Reading B−Reading A/Reading B×100

Data set [3] has as its target AChE (Homo sapiens, UniProt P22303). In words: Acetylcholinesterase inhibitory activity (Ellman's method). The class given is biochemical. Particulars: acetylthiocholine substrate, 25 °C, read at 405 nm. As for the experimental part: as §1, §2
(In general: DTNB colorimetry detects thiols as they appear.)

The test system of data set [4] is MIA Pa Ca-2. The conditions noted are these: MIA Pa Ca-2 cell line; read-out: Cytotoxic activity IC50; cited from earlier work.
Data set [5] deals with NCI-H460. Particulars: NCI-H460 cell line; read-out: Cytotoxic activity IC50; cited from earlier work.
Data set [6] relates to SF-268. Particulars: SF-268 cell line; read-out: Cytotoxic activity IC50; cited from earlier work.
For data set [7], the system named is MCF-7. The conditions noted are these: MCF-7 cell line; read-out: Cytotoxic activity IC50; cited from earlier work.

Several values for one entry are separate records, joined by “and”; a condition that tells them apart may be missing. Identical values can stand only once. Like-named read-outs stand apart in the source and are kept apart here.

Sequence of BuChE (P06276 29-602): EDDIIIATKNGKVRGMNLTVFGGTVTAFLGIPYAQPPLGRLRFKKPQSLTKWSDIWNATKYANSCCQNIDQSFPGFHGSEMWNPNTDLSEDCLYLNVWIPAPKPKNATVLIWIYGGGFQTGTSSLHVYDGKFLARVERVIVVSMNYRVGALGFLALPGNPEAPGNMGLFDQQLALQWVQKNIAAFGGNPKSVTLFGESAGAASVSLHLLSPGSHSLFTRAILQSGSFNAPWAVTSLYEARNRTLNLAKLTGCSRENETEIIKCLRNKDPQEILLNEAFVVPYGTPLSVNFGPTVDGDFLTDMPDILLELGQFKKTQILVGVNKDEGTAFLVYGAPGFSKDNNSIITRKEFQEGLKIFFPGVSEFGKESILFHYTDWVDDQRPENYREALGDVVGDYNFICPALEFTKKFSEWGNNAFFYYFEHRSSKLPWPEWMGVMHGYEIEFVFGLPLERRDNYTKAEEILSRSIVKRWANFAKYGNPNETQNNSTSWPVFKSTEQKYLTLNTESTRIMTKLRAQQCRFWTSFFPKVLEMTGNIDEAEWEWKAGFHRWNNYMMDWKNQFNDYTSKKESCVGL
Sequence of AChE (P22303 32-614): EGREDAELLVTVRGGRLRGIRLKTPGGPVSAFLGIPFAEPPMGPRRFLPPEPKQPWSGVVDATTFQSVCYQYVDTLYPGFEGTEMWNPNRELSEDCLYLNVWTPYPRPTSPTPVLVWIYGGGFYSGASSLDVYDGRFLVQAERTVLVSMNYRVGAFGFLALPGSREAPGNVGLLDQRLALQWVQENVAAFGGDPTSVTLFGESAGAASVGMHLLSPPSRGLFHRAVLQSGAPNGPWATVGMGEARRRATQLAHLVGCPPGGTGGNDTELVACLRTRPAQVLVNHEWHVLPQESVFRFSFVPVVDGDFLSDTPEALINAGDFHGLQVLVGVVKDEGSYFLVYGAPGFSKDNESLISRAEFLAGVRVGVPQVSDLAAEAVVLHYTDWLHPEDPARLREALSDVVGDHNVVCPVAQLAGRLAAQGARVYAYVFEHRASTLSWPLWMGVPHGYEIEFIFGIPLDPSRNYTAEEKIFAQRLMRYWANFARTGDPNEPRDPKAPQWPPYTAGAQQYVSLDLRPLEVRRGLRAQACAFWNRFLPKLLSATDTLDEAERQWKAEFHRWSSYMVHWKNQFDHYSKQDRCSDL

Consider `CC1=C2C(=CO[C@H](C)[C@H]2C)C(O)=C(C(=O)O)C1=O` [Citrinin], for which the “Neuroprotective activity against glutamate-induced excitotoxicity” value in data set [1] was “potential neuroprotective activity”. Besides, the IC50 – broadly, the midpoint of a concentration-inhibition curve – in data set [2] (Butyryl Choline Esterase IC50, Ellman's method) is 32 µM and 30.1 µM; in data set [3] (Acetylcholine Esterase IC50, Ellman's method) it was 20.2 µM.

Turning to `C=CC(C)(C)c1[nH]c2ccccc2c1C1=C(O)C(=O)C(c2c[nH]c3ccccc23)=C(CC=C(C)C)C1=O` [Terrequinone A], the IC50 in data set [4] is 5.4 µM; in data set [2] (Ellman's method, read-out: Butyryl Choline Esterase IC50 (converted)), 31.9 µM; in data set [5] it was 5.6 µM; in data set [6], 13.9 µM; in data set [3] (Ellman's method, read-out: Acetylcholine Esterase IC50 (converted)), 22.6 µM; in data set [7], 6.8 µM.
